Several values for one entry are separate records, joined by “and”; a condition that tells them apart may be missing. Identical values can stand only once.

In the supplement of paper PMC4862054 one finds normalised viability data, which are given here for 20 compounds.

What all share (assay): normalised viability (% of control), CellTiter-Blue; higher = more viable cells (about 100 = DMSO control)
Common to all, as to conditions: incubation time: 72 h
In general terms: The colour change of resazurin is a common sign of viable cells or microbes.

The subject of assay [1] is MDA-MB-453. How it is done: (§1)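 DSRT, CellTiter-Blue viability, 72 h incubation. Signal is normalised to DMSO and benzethonium chloride controls. Value is the normalised response at dose 6.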
Assay [2] deals with HDQ-P1. How it is done: as §1
Assay [3] has as its system CAL-51. The procedure:
as §1

Assay [4] has as its system CAL-148. The procedure: as §1
Assay [5] relates to CAL-85-1. How it is done: as §1
Assay [6] deals with DU-4475. The procedure:
as §1

Assay [7] concerns MDA-MB-453. How it is done:
(§2)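 DSRT, CellTiter-Blue viability, 72 h incubation. Signal is normalised to DMSO and benzethonium chloride controls. Value is the normalised response at dose 7.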
This is another data set of the same source.

For assay [8], the system named is HDQ-P1. How it is done:
as §2
This is another data set of the same source.

Assay [9] concerns CAL-51. How it is done: as §2
The source holds these as a separate data set.

In assay [10] the test system is CAL-148. How it is done:
as §2
The source holds these as a separate data set.

The subject of assay [11] is CAL-85-1. The procedure: as §2
This is another data set of the same source.

For assay [12], the system named is DU-4475. The procedure:
as §2
This is another data set of the same source.

Assay [13] deals with MDA-MB-453. The procedure:
(§3)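 DSRT, CellTiter-Blue viability, 72 h incubation. Signal is normalised to DMSO and benzethonium chloride controls. Value is the normalised response at dose 8.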
The source holds these as a separate data set.

The subject of assay [14] is CAL-51. How it is done:
as §3
The source holds these as a separate data set.

The test system of assay [15] is CAL-148. How it is done:
as §3
The source holds these as a separate data set.

In assay [16] the test system is CAL-85-1. The procedure:
as §3
The source holds these as a separate data set.

The test system of assay [17] is DU-4475. How it is done: as §3
The source holds these as a separate data set.

Consider `Cc1nc(Nc2ncc(C(=O)Nc3c(C)cccc3Cl)s2)cc(N2CCN(CCO)CC2)n1` [Dasatinib] (30 nM), for which the normalised viability was 102% and 101% in assay [1]; 24.4% and 18.2% in assay [2]; 59.8% and 68.3% in assay [3]; 110% and 90.6% in assay [4]; 83.9% and 86% in [5]; 105% and 87.6% in assay [6].

Regarding `O=S(=O)(c1cccc2cnccc12)N1CCCNCC1` [Fasudil] (300 nM), the normalised viability in assay [1] was found to be 106%; in [2], 90.9%; in assay [3] it was 107%; in [4], 83.7%; in [5], 97.2%; in [6], 117%.

Regarding `O=S(=O)(c1cccc2cnccc12)N1CCCNCC1` [Fasudil] (1000 nM), the normalised viability is 101% in assay [7]; 111% in assay [8]; 115% in [9]; 90.7% in [10]; 101% in assay [11]; 120% in assay [12].

Turning to `CS(=O)(=O)N1CCN(Cc2cc3nc(-c4cccc5[nH]ncc45)nc(N4CCOCC4)c3s2)CC1` [GDC-0941] (300 nM), the normalised viability turned out to be 43.4% in assay [1]; 37.6% in assay [2]; 61% in [3]; 83.5% in assay [4]; 73.2% in assay [5]; 83.2% in [6].

For the compound `CS(=O)(=O)N1CCN(Cc2cc3nc(-c4cccc5[nH]ncc45)nc(N4CCOCC4)c3s2)CC1` [GDC-0941] (1000 nM), the normalised viability worked out at 12% in assay [7]; 25% in assay [8]; 39.5% in assay [9]; 54% in assay [10]; 58.4% in assay [11]; 105% in assay [12].

Take `Cc1c(CN2CCN(C(=O)[C@H](C)O)CC2)sc2c(N3CCOCC3)nc(-c3cnc(N)nc3)nc12` [GDC-0980] (300 nM): the normalised viability was 18.3% in assay [1]; 29.7% in [2]; 38.7% in assay [3]; 52.1% in [4]; 62% in assay [5]; 68.3% in [6].

In the case of `Nc1cccc2c1CN(C1CCC(=O)NC1=O)C2=O` (stereo not drawn) [Lenalidomide] (300 nM), the normalised viability was 97.7% and 101% in [1]; 66.2% and 69.3% in assay [2]; 107% and 103% in [3]; 92% and 96.1% in assay [4]; 87.3% and 90.2% in assay [5]; 103% and 86.6% in [6].

In the case of `C[C@]12O[C@H](C[C@]1(O)CO)n1c3ccccc3c3c4c(c5c6ccccc6n2c5c31)CNC4=O` [Lestaurtinib] (30 nM), the normalised viability in assay [1] was found to be 105%; in assay [2] it was 84.5%; in assay [3], 111%; in assay [4], 107%; in assay [5], 114%; in [6], 91.3%.

Take `O=C1c2c(O)ccc(O)c2C(=O)c2c(NCCNCCO)ccc(NCCNCCO)c21` [Mitoxantrone] (30 nM): the normalised viability in [1] was found to be 98%; in [2], 63.9%; in assay [3], 42.9%; in assay [4], 56.1%; in assay [5], 73.1%; in [6], 21.7%.

For the compound `Nc1ccccc1NC(=O)c1ccc(CNc2nccc(-c3cccnc3)n2)cc1` [Mocetinostat] (300 nM), the normalised viability in assay [1] was 69%; in [2] it was 57.8%; in [3], 92.9%; in assay [4], 87.5%; in assay [5] it was 85.8%; in assay [6], 81.9%.

For the compound `COc1nc(N)nc2c1ncn2[C@@H]1O[C@H](CO)[C@@H](O)[C@@H]1O` [Nelarabine] (300 nM), the normalised viability in assay [1] is 102% and 99.1%; in assay [3] it was 101% and 97.9%; in assay [4], 88.9% and 89.2%; in assay [5], 100% and 97.8%; in assay [6], 113% and 116%.

For `Cc1ccc(Nc2nccc(N(C)c3ccc4c(C)n(C)nc4c3)n2)cc1S(N)(=O)=O` [Pazopanib] (300 nM), the normalised viability in assay [1] amounted to 88.4%; in assay [2] it was 64%; in [3], 95.6%; in assay [4], 85.7%; in assay [5] it was 96.1%; in assay [6], 102%.

Consider `O=C(CCBr)N1CCN(C(=O)CCBr)CC1` [Pipobroman] (300 nM), for which the normalised viability is 113% in [1]; 87.1% in assay [2]; 106% in assay [3]; 107% in [4]; 101% in assay [5]; 110% in assay [6].

Consider `c1cc(CN2CCCNCCNCCCNCC2)ccc1CN1CCCNCCNCCCNCC1` [Plerixafor] (75 nM), for which the normalised viability in assay [1] came to 93.3%; in [2], 84%; in assay [3], 103%; in assay [4], 85.9%; in [5], 95%; in [6], 101%.

For `c1cc(CN2CCCNCCNCCCNCC2)ccc1CN1CCCNCCNCCCNCC1` [Plerixafor] (250 nM), the normalised viability stood at 104% in assay [7]; 121% in assay [8]; 105% in assay [9]; 84.4% in [10]; 94.3% in [11]; 97.2% in [12].

Turning to `C[C@]12C=CC(=O)C=C1CC[C@@H]1[C@@H]2[C@@H](O)C[C@@]2(C)[C@H]1CC[C@]2(O)C(=O)CO` [Prednisolone] (300 nM), the normalised viability in assay [1] came out at 79.4%; in [2], 64.2%; in [3] it was 104%; in [4], 105%; in assay [5] it was 110%; in assay [6], 113%.

Regarding `CNC(=O)c1cc(Oc2ccc(NC(=O)Nc3ccc(Cl)c(C(F)(F)F)c3)cc2)ccn1` [Sorafenib] (30 nM), the normalised viability in assay [1] was 106% and 99.1%; in assay [2], 81.1% and 72.2%; in assay [3], 108% and 101%; in assay [4] it was 109% and 91.4%; in assay [5], 97.6% and 103%; in assay [6], 101% and 115%.

Regarding `CNC(=O)c1cc(Oc2ccc(NC(=O)Nc3ccc(Cl)c(C(F)(F)F)c3)cc2)ccn1` [Sorafenib] (300 nM), the normalised viability in assay [13] is 96.8% and 108%; in [14] it was 109% and 102%; in [15], 93.4% and 99%; in assay [16], 83.4% and 99.7%; in assay [17] it was 104% and 99.8%.

As for `CCN(CC)CCNC(=O)c1c(C)[nH]c(/C=C2\C(=O)Nc3ccc(F)cc32)c1C` [Sunitinib] (30 nM), the normalised viability in [1] is 93.3% and 81.3%; in assay [2], 74.4% and 92.3%; in assay [3], 111% and 91.1%; in assay [4], 99.5% and 101%; in assay [5] it was 96.7% and 96.2%; in assay [6], 84.4% and 92.7%.

As to `CC[C@@]1(O)C(=O)OCc2c1cc1n(c2=O)Cc2cc3c(CN(C)C)c(O)ccc3nc2-1` [Topotecan] (30 nM), the normalised viability was 90.6% in assay [1]; 82.3% in [2]; 94.8% in [3]; 71.3% in assay [4]; 95.9% in [5]; 56.8% in assay [6].
